Data as given in US20110086853A1, “Therapeutic Compounds” (priority 2009, published 2011).

target: T1, Human CB1 receptor (Homo sapiens, UniProt P21554); assay: hCB1 GTPγS binding; format: biochemical; conditions: maximal stimulated binding determined with 10 μM Win 55,212-2
T1 construct: purchased Receptor Biology
Protocol: hCB1 and hCB2 GTPγS Binding
Human CB1 receptor from Receptor Biology (hCB1) or human CB2 receptor membranes (BioSignal) are thawed at 37° C., passed 3 times through a 25-gauge blunt-end needle and diluted in the GTPγS binding buffer (50 mM Hepes, 20 mM NaOH, 100 mM NaCl, 1 mM EDTA, 5 mM MgCl2, pH 7.4, 0.1% BSA). The EC50 and Emax of the compounds of the invention are evaluated from 10-point dose-response curves done in 300 μl with the appropriate amount of membrane protein and 100000-130000 dpm of GTPg^35S per well (0.11-0.14 nM). The basal and maximal stimulated binding is determined in absence and presence of 1 μM (hCB2) or 10 μM (hCB1) Win 55, 212-2 respectively. The membranes are pre-incubated for 5 minutes with 56.25 μM (hCB2) or 112.5 μM (hCB1) GDP prior to distribution in plates (15 μM (hCB2) or 30 μM (hCB1) GDP final). The plates are vortexed and incubated for 60 minutes at room temperature, filtered on Unifilters GF/B (presoaked in water) with the Tomtec or Packard harvester using 3 ml of wash buffer (50 mM Tris, 5 mM MgCl2, 50 mM NaCl, pH 7.0). The filters are dried for 1 hour at 55° C. The radioactivity (cpm) is counted in a TopCount (Packard) after adding 65 μl/well of MS-20 scintillation liquid. Antagonist reversal studies are done in the same way except that (a) an agonist dose-response curve is done in the presence of a constant concentration of antagonist, or (b) an antagonist dose-response curve is done in the presence of a constant concentration of agonist.

T1 sequence (P21554 whole entry): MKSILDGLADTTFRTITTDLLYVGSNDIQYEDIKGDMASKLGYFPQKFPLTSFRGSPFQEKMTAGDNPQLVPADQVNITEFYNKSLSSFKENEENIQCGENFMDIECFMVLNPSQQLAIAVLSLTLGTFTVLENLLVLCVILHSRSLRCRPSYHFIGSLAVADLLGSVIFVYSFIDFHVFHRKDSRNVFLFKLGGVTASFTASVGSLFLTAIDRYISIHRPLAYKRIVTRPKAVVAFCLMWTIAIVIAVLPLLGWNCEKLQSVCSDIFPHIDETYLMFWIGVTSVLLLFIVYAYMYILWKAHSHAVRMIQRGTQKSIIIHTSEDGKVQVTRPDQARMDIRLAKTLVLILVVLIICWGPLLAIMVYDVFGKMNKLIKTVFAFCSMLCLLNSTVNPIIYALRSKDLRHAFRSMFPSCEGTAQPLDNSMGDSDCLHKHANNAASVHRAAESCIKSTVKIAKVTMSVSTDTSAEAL

With CCNC(=O)[C@@H]1CN(S(=O)(=O)c2ccc3c(c2)nc(C(C)(C)C)n3CC2CCC(F)(F)CC2)CCO1 [(2S)-4-((2-tert-butyl-1-[(4,4-difluorocyclohexyl)methyl]-1H-benzimidazol-5-yl}sulfonyl)-N-ethylmorpholine-2-carboxamide] as the compound, how does the Emax read?
Its Emax is 156%.

With CC(C)(C)c1nc2cc(S(=O)(=O)n3cc(C(=O)NC4CC4)cn3)ccc2n1CC1CCC(F)(F)CC1 [1-({2-tert-Butyl-1-[(4,4-difluorocyclohexyl)methyl]-1H-benzimidazol-5-yl}sulfonyl)-N-cyclopropyl-1H-pyrazole-4-carboxamide] as the compound, how does the Emax read?
Its Emax is 122%.

Which Emax does the source give for CC(C)(C)c1nc2cc(S(=O)(=O)N3CCC[C@H](C(=O)NC4CC4)C3)ccc2n1CC1CCC(F)(F)CC1 [(3S)-1-({2-tert-Butyl-1-[(4,4-difluorocyclohexyl)methyl]-1H-benzimidazol-5-yl}sulfonyl)-N-cyclopropylpiperidine-3-carboxamide] here?
Its Emax is 136%.

With CCCNC(=O)[C@H]1CCCN(S(=O)(=O)c2ccc3c(c2)nc(C(C)(C)C)n3CC2CCC(F)(F)CC2)C1 [(3S)-1-({2-tert-Butyl-1-[(4,4-difluorocyclohexyl)methyl]-1H-benzimidazol-5-yl}sulfonyl)-N-propylpiperidine-3-carboxamide] as the compound, how does the Emax read?
Its Emax is 134%.

How did the Emax turn out when CNC(=O)c1cnn(S(=O)(=O)c2ccc3c(c2)nc(C(C)(C)C)n3CC2CCC(F)(F)CC2)c1 [1-({2-tert-Butyl-1-[(4,4-difluorocyclohexyl)methyl]-1H-benzimidazol-5-yl}sulfonyl)-N-methyl-1H-pyrazole-4-carboxamide] was run?
The Emax was 118%.

Which Emax does the source give for CCNC(=O)c1cnn(S(=O)(=O)c2ccc3c(c2)nc(C(C)(C)C)n3CC2CCOCC2)c1 [Example 27, 1-{[2-tert-Butyl-1-(tetrahydro-2H-pyran-4-ylmethyl)-1H-benzimidazol-5-yl]sulfonyl}-N-ethyl-1H-pyrazole-4-carboxamide] here?
Its Emax is 127%.

CCNC(=O)c1ccn(S(=O)(=O)c2ccc3c(c2)nc(C(C)(C)C)n3CC2CCOCC2)c1 [1-{[2-tert-butyl-1-(tetrahydro-2H-pyran-4-ylmethyl)-1H-benzimidazol-5-yl]sulfonyl}-N-ethyl-1H-pyrrole-3-carboxamide] was tested. Which Emax did it give?
Its Emax is 138%.

How did the Emax turn out when CC(C)NC(=O)c1cnn(S(=O)(=O)c2ccc3c(c2)nc(C(C)(C)C)n3CC2CCC(F)(F)CC2)c1 [1-({2-tert-Butyl-1-[(4,4-difluorocyclohexyl)methyl]-1H-benzimidazol-5-yl}sulfonyl)-N-isopropyl-1H-pyrazole-4-carboxamide] was run?
Its Emax is 125%.

With CC(C)(C)c1nc2cc(S(=O)(=O)N3CCOC(C(=O)NC4CC4)C3)ccc2n1CC1CCC(F)(F)CC1 (centres unmarked) [4-({2-tert-Butyl-1-[(4,4-difluorocyclohexyl)methyl]-1H-benzimidazol-5-yl}sulfonyl)-N-cyclopropylmorpholine-2-carboxamide] as the compound, how does the Emax read?
The Emax was 120%.

CC(F)(F)c1nc2cc(S(=O)(=O)n3ccc(C(=O)NC4CC4)c3)ccc2n1CC1CCOCC1 [N-Cyclopropyl-1-{[2-(1,1-difluoroethyl)-1-(tetrahydro-2H-pyran-4-ylmethyl)-1H-benzimidazol-5-yl]sulfonyl}-1H-pyrrole-3-carboxamide] was tested. Which Emax did it give?
The Emax was 119%.

With CC(C)(C)c1nc2cc(S(=O)(=O)n3ccc(C(=O)NC4CC4)c3)ccc2n1CC1CCOCC1 [1-{[2-tert-Butyl-1-(tetrahydro-2H-pyran-4-ylmethyl)-1H-benzimidazol-5-yl]sulfonyl}-N-cyclopropyl-1H-pyrrole-3-carboxamide] as the compound, how does the Emax read?
The Emax was 142%.
